Laboratory results from patent US20220133714A1, “EXTRACELLULAR MATRIX MODULATING AGENT” (KOWA COMPANY, LTD., priority 2019, published 2022).

What was measured:
human fibroblasts = conditions: cited from earlier work
[1] = tested on: corneal endothelial cells; conditions: cited from earlier work; for apoptosis and endothelial-mesenchymal transition (EMT) of corneal endothelial cells / cell adhesion, migration, proliferation and wound healing: in vitro and in vivo animal models
[2] = tested on: corneal endothelial cells of normal donors; assay: Real-time PCR expression of FECD-associated matrix genes in normal donor endothelial-Descemet membrane specimens; type: cell-based, human; conditions: normal EDM specimens, 24 h
Experimental: FIG. 3 illustrates Relative expression of FECD-associated matrix genes in corneal endothelial cells of normal donors (n=6) without and with incubation in 10-100 μM K-115 for 24 h. Gene expression was analyzed by quantitative real-time PCR and normalized to GAPDH (*p<0.01).
(§1) Endothelial-Descemet membrane (EDM)-complexes from normal donor corneas and from FECD patients during DMEK surgery were prepared. EDM scrolls were dissected into two halves and incubated for 24-72 hours in CorneaMax storage medium (Eurobio) with or without K-115 (Selleck Chemicals). Gene expression analysis was performed using specific real-time PCR arrays for FECD-associated candidate genes as well as RT2 Profiler PCR Arrays (Quiagen). Array results were again validated using gene-specific real-time PCR assays. Protein expression analysis was performed by Western blotting.

[3] = tested on: corneal endothelial cells of FECD patients; assay: Real-time PCR expression of FECD-associated matrix genes in FECD patient endothelial-Descemet membrane specimens; type: cell-based, human; conditions: 30 μM, 24 hours, vs untreated controls
Experimental: (§2) FIG. 4 illustrates Relative expression of FECD-associated matrix genes in corneal endothelial cells of FECD patients (n=20) without and with incubation in 30 μM K-115 for 24 h. Gene expression was analyzed by quantitative real-time PCR and normalized to GAPDH (*p<0.01, **p<0.001). Endothelial-Descemet membrane (EDM)-complexes from normal donor corneas and from FECD patients during DMEK surgery were prepared. EDM scrolls were dissected into two halves and incubated for 24-72 hours in CorneaMax storage medium (Eurobio) with or without K-115 (Selleck Chemicals). Gene expression analysis was performed using specific real-time PCR arrays for FECD-associated candidate genes as well as RT2 Profiler PCR Arrays (Quiagen). Array results were again validated using gene-specific real-time PCR assays. Protein expression analysis was performed by Western blotting. Then, gene expression levels in FECD specimens were analyzed, which were incubated in 30 μM K-115 for 24 hours. […] In order to identify additional matrix genes that may be transcriptionally regulated by K-115, gene expression profiling using a Human Extracellular Matrix and Adhesion Molecule PCR array were performed. With this approach, downregulation of fibronectin and collagen types I and III and detected additional downregulation of vitronectin and collagen types V and XIV in corneal endothelial cells from FECD patients (data not shown) were confirmed.

[4] = tested on: corneal endothelial cells of FECD patients; assay: Western blot protein expression in FECD specimens; type: cell-based, human; conditions: 30 μM, 72 hours of incubation
Experimental: FIG. 5 illustrates Western Blot analysis of fibronectin in corneal endothelial cells of FECD patients (n=4); equal loading of samples was verified by β-actin.
as §1
Then, gene expression levels in FECD specimens were analyzed, which were incubated in 30 μM K-115 for 24 hours. […] In order to identify additional matrix genes that may be transcriptionally regulated by K-115, gene expression profiling using a Human Extracellular Matrix and Adhesion Molecule PCR array were performed. With this approach, downregulation of fibronectin and collagen types I and III and detected additional downregulation of vitronectin and collagen types V and XIV in corneal endothelial cells from FECD patients (data not shown) were confirmed.

[5] = tested on: corneal endothelial cells from FECD patients; assay: Human Extracellular Matrix and Adhesion Molecule PCR array gene expression profiling; type: cell-based; conditions: data not shown
Experimental: as §2, with “Endothelial-Descemet” for “FIG. 4 illustrates Relative expression of FECD-associated matrix genes in corneal endothelial cells of FECD patients (n=20) without and with incubation in 30 μM K-115 for 24 h. Gene expression was analyzed by quantitative real-time PCR and normalized to GAPDH (*p<0.01, **p<0.001). Endothelial-Descemet”

## O=S(=O)(c1cccc2cnccc12)N1CCCNCC1 [Fasudil]
Human fibroblasts
  expression of α-SMA, MLCP, LIMK1, p-cofilin, collagen I, and collagen III protein: attenuated

## Cc1cncc2cccc(S(=O)(=O)N3CCCNC[C@@H]3C)c12 [H-1152]
[1]
  apoptosis and endothelial-mesenchymal transition (EMT) of corneal endothelial cells: suppressed
  cell adhesion, migration, proliferation and wound healing: stimulated

## C[C@H]1CNCCCN1S(=O)(=O)c1cccc2cncc(F)c12 [K-115, (S)-(−)-1-(4-fluoro-5-isoquinolinesulfonyl)-2-methyl-1,4-homopiperazine]
[2]; 10-100 μM, normalized to GAPDH
  agrin gene expression: significantly downregulated
  collagen type I gene expression: significantly downregulated
  collagen type III gene expression: significantly downregulated
  fibronectin gene expression: significantly downregulated
  α-smooth muscle actin (α-SMA) gene expression: significantly downregulated
  β-actin gene expression: significantly downregulated
[2]; tested 10-100 μM
  most effective concentration for downregulation of matrix genes: 30 µM
[3]
  TGFBI gene expression: upregulated
  agrin gene expression: significant reduction
  collagen type I gene expression: significant reduction
  collagen type III gene expression: significant reduction
  collagen type XVI gene expression: upregulated
  fibronectin gene expression: significant reduction
  integrin a4 (ITGA4) gene expression: upregulated
  α-SMA gene expression: significant reduction
[4]
  collagen type III protein level: significantly downregulated
[4]; Western blot
  fibronectin protein level: significantly downregulated
[5]
  collagen type I gene expression (PCR array): downregulation
  collagen type III gene expression (PCR array): downregulation
  collagen type V gene expression (PCR array): downregulation
  collagen type XIV gene expression (PCR array): downregulation
  fibronectin gene expression (PCR array): downregulation
  vitronectin gene expression (PCR array): downregulation
[1]
  EMT markers: downregulation
  endothelial cell proliferation and wound healing: stimulating
  functional endothelial markers: upregulation

## O=C(NCc1ccccc1)c1csc(Nc2ccncn2)n1 [Thiazovivin]
[1]
  apoptosis and endothelial-mesenchymal transition (EMT) of corneal endothelial cells: suppressed
  cell adhesion, migration, proliferation and wound healing: stimulated

## C[C@@H](N)[C@H]1CC[C@H](C(=O)Nc2ccncc2)CC1 [Y-27632]
[1]
  apoptosis and endothelial-mesenchymal transition (EMT) of corneal endothelial cells: suppressed
  cell adhesion, migration, proliferation and wound healing: stimulated
